Data reported in BigSolDB 2.1.

N#Cc1ccc([N+](=O)[O-])cc1
solubility (mole fraction)
Conditions | 278.15 K | 283.15 K | 288.15 K | 293.15 K | 298.15 K | 303.15 K | 308.15 K | 313.15 K | 318.15 K
in ethanol | 0.00255 | 0.00302 | 0.00376 | 0.00454 | 0.00556 | 0.00672 | 0.00821 | 0.00984 | 0.0116
in ethyl acetate | 0.0404 | 0.0463 | 0.0538 | 0.0619 | 0.0721 | 0.0842 | 0.1 | 0.119 | 0.142
in isopropanol | 0.00162 | 0.00196 | 0.00246 | 0.00304 | 0.00374 | 0.0046 | 0.00572 | 0.00708 | 0.00877
in methanol | 0.0032 | 0.0037 | 0.00448 | 0.00541 | 0.00652 | 0.00788 | 0.00955 | 0.0115 | 0.0135
in n-propanol | 0.00227 | 0.00271 | 0.0033 | 0.00407 | 0.00505 | 0.00619 | 0.00758 | 0.00908 | 0.0108
